Reference: patent US20190151308A1 (Otsuka Pharmaceutical Co., Ltd., priority 2002, published 2019)

What was measured:
[1] = Tail suspension test (TST); type: in vivo, mice; settings: 3 mg/kg p.o. of each drug; for Immobility time (sec, mean ± SE): 60 min before suspension, 5-15 min period, N = 7-9; for % of shortening for immobility time: versus vehicle
From the text: The tail suspension test (TST) was originally described by Steru et al. […] The antidepressant activity of a test drug can be detected as an index of shortening the immobility time. This test is widely used as to an experimental animal model for predicting the antidepressant activity of a test drug in clinical settings. An automated device for performing the TST was developed by the authors of the TST (1989).^2) We improved this device and developed our own device incorporating an electric balance, an A/D converter, a testing box (30×25×25 cm), and a personal computer. The mouse was suspended from a hook hanging from the ceiling in the testing box by adhesive tape applied 20 mm from the tip of the tail. The duration of immobility was measured by the computer for a period of 15 min following the start of suspension. […] The experiments were carried out in a sound-proof room.

[2] = Augmentation therapy in major depressive disorder patients non-responsive or partially responsive to serotonin reuptake inhibitors; type: in vivo; settings: 10 to 30 mg/day for 4 to 8 weeks, added to serotonin reuptake inhibitor therapy
Protocol: Only patients with such Hamilton scores receive treatment. These patients are interviewed to obtain a complete medical and psychiatric history.
Only patients with such Hamilton scores receive treatment. These patients are interviewed to obtain a complete medical and psychiatric history. Dehydroaripiprazole is first administered at a dose of 10 mg/day and increased to 30 mg/day as needed in the opinion of the monitoring psychiatrist. Dehydroaripiprazole is administered to these patients at a dose of from 10 mg/day to 30 mg/day for a period of at least four weeks, and up to eight weeks for patients who respond well to this treatment during the first four weeks.

For CN(C)CCCC1(c2ccc(F)cc2)OCc2cc(C#N)ccc21 (centres unmarked) [Citalopram, citalopram], the “Immobility time (sec, mean ± SE)” value [1] was 468.7 ± 24.2 s and the “% of shortening for immobility time” value [1] was 6%.
With O=C1CCc2ccc(OCCCCN3CCN(c4cccc(Cl)c4Cl)CC3)cc2N1 [Aripiprazole, 7-{4-[4-(2,3-Dichlorophenyl)-1-piperazinyl]-butoxy}-3,4-dihydrocarbostyril] the “Immobility time (sec, mean ± SE)” value [1] was 486.4 ± 12.3 s, the “% of shortening for immobility time” value [1] was 3% and the “symptoms of depression (Hamilton test, CGI, AIMS, SAS, Barnes)” value [2] was “improvement in alleviation of symptoms of depression”.
